Data set [1] has as its target T1, NMDA receptor (Mus musculus, UniProt P35438).
T1 construct: from tissue; host or cells: living mice (albino Swiss males for NMDA and PTZ tests, NMR females for MES)
Description: Maximal electroshock (MES)-induced tonic convulsions. The data set is classed as in vivo. Conditions: i.p.; for MES ID50: 15 min before induction. The protocol: (§1) To assess NMDA receptor antagonistic properties of the tested agents by assessing anticonvulsive effects. Additionally the role of organic acid transporters in the elimination from the brain of tested agents was assessed by using an inhibitor, Probenicid, on the duration of anticonvulsive activity.
(§2) Male albino Swiss mice (19-21 g) housed 10-15 per cage were used for the NMDA lethality test (Leander et al., 1988). For pentylenetetrazol (PTZ)-induced convulsions male albino Swiss mice (25-34 g.) housed 40 per cage (58×38×20 cm) were used while in the maximal electroshock (MES) and motor impairment tests NMR female mice (18-28 g) housed 5 per cage were employed. All animals were kept with water and food ad libittum under a 12-h light-dark cycle (light on at 6 a.m.), and at a controlled temperature (20°±0.5° C.). All experiments were performed between 10 a.m. and 5 p.m. Tested agents were injected 15 min. i.p before the induction of convulsions if not stated otherwise (see below). Mrz 2/502 was dissolved in saline added with NaOH. Most other agents were dissolved in the following solution: 0.606 g Tris; 5.0 g. glucose; 0.5 g. Tween 80; and 95 ml water. The choline and tetramethylammonium salts were dissolved in distilled water.
(§3) MES (100 Hz, 0.5 sec shock duration, 50 mA shock intensity, 0.9 ms impulse duration, Ugo Basile) was applied through corneal electrodes. The presence of tonic convulsions was scored (tonic extension of hind paws with minimum angle to the body of 90°). In an additional experiment mice were injected with Probenicid (200 mg/kg) 30 min before administration of the tested agents to assess the role of organic acid transport in elimination (duration of action). The aim was to obtain ED50 s for all parameters scored using the Litchfield Wilcoxon (1949) test for quantal dose responses.
(In general: The maximal electroshock test induces tonic seizures with an electrical stimulus.)

The target of data set [2] is T2, NMDA receptor (Rattus norvegicus, UniProt P35439).
T2 construct: endogenous in cells
Description: Patch clamp, inward currents to NMDA in cultured superior colliculus neurones. The data set is classed as cell-based. Particulars: NMDA 200 μM, glycine 1 μM. The procedure: Cells were mechanically dissociated in 0.05% DNAase / 0.3% ovomucoid (Sigma) following a 15 minute pre-incubation with 0.66% trypsin / 0.1% DNAase (Sigma). The dissociated cells were then centrifuged at 18G for 10 minutes, resuspended in minimum essential medium (Gibco) and plated at a density of 200,000 cells cm onto poly-L-lysine (Sigma)-precoated plastic petri dishes (Falcon). The cells were nourished with NaHCO3 /HEPES-buffered minimum essential medium supplemented with 5% foetal calf serum and 5% horse serum (Gibco) and incubated at 37° C. with 5%CO2 at 95% humidity. The medium was exchanged completely following inhibition of further glial mitosis with cytosine-β-D-arabinofuranoside (20 μM Sigma) after about 7 days in vitro. Thereafter the medium was exchanged partially twice weekly. […] Moreover, the relatively small neurones (soma 15-20 μm .phi.) are ideally suited to minimise problems of buffered diffusion for concentration clamp experiments.
Patch clamp recordings were made from these neurones with polished glass electrodes (4-6 m.OMEGA.) in the whole cell mode at room temperature (20°-22° C.) with the aid of an EPC-7 amplifier (List). Test substances were applied by switching channels of a custom made fast superfusion system with a common outflow (10-20 ms exchange times). The contents of the intracellular solution were as follows (mM): CsCl (120), TEACl (20), EGTA (10), MgCl2 (1), CaCl2 (0.2), glucose (10), ATP (2), cAMP (0.25); pH was adjusted to 7.3 with CsOH or HCl. The extracellular solutions had the following basic composition (mM): NaCl (140), KCl (3), CaCl2 (0.2), glucose (10), HEPES (10), sucrose (4.5), tetrodotoxin (TTX 3*10-4). For most experiments glycine (1 μM) was present in all solutions. Experiments to test the glycine-dependence of the tricyclic "pyrido-phtalazin diones" were performed in the continuous presence of increasing concentrations of glycine (1-10 μM).
This effect was mediated at the glycineB site as evidenced by the parallel shift in the concentration-response curves in the presence of increasing glycine concentrations. Thus the Kbs of Mrz 2/502 as assessed according to the Cheng-Prusoff relationship were similar in glycine 1, 3 and 10 μM (80, 124 and 118 nM respectively). […] Choline derivatives had similar potencies to the free acids in vitro (Table14b).
In general terms: In patch-clamp work, channel activity is measured electrically.

In data set [3] the test system is AMPA. Put plainly: Microelectrophoretic application of AMPA to spinal neurones in vivo. Particulars: i.v., responses of single rat spinal neurones. The procedure:
(§4) The ability of these glycineB antagonists to act as NMDA receptor antagonists in vivo was assessed using i.v. administration against responses of single neurones in the rat spinal cord to microelectrophoretic application of AMPA and NMDA.

The subject of data set [4] is organic acid transport. Description: Duration of anticonvulsive action with and without probenecid. The class given is in vivo, mouse. Conditions: listed as 2/570. The protocol: as §1, §2, §3
Moreover it seems that choline salts have a longer duration of action. Probenecid injection prolonged considerably the duration of anticonvulsive action of all agents tested. For example the half lives of 2/514 and 2/570 were around 40 and 80 minutes respectively in the absence of probenicid. In the presence of probenicid the half lives were prolonged to around 180 and 210 minutes respectively. Thus, it seems that organic acids transport in the choroid plexus out of the brain plays an important role in the short duration of action of the compounds tested..

For data set [5], the target named is T2, NMDA receptor. Put plainly: Microelectrophoretic application of NMDA to spinal neurones in vivo. Particulars: rat, iv, responses of single rat spinal neurones; read-out: Microelectrophoretic NMDA ID50. The protocol: as §4
The target of data set [6] is T3, glycineB site of the NMDA receptor (rat cortical membranes) (Rattus norvegicus, UniProt P35439).
T3 construct: The cortex was dissected and homogenised in 20 volumes of ice-cold 0.32M sucrose; from tissue; host or cells: brain cortex membranes of male Sprague-Dawley rats
Description: [3H]5,7-DCKA binding assay. Particulars: 10 nM [3H]5,7-DCKA. The procedure:
Tissue preparation was performed according to Foster and Wong (1987). Male Sprague-Dawley rats (200-250g) were decapitated and their brains were removed rapidly. The cortex was dissected and homogenised in 20 volumes of ice-cold 0.32M sucrose using a glass-Teflon homogenizer. The homogenate was centrifuged at 1000×g for 10 min. The pellet was discarded and the supernatant centrifuged at 20,000×g for 20 min. The resulting pellet was resuspended in 20 volumes of distilled water and centrifuged for 20 min at 8000×g. Then the supernatant and the buffy coat were centrifuged three times (48,000× g for 20 min) in the presence of 5 mM Tris-HCl, pH 7.4. All centrifugation steps were carried out at 4° C. After resuspension in 5 volumes of 5 mM Tris-HCl, pH 7.4 the membrane suspension was frozen rapidly at -80° C. until the day of assay. On the day of assay the membranes were thawed and washed four times by resuspension in 5 mM Tris-HCl, pH 7.4 and centrifugation at 48,000× g for 20 min. The final pellet was suspended in assay buffer.
The amount of protein in the final membrane preparation was determined according to the method of Lowry (1951) with some modifications (Hartfree, 1972). 50 μl of Protein samples (in triplicates) were diluted to 1 ml with distilled water and treated with 0.9 ml of a solution containing 2 g potassium sodium tartrate and 10 g Na2 CO3 in 500 ml 1N NaOH and 500ml water. Blank and standard (with bovine serum albumin) were set up in the same way. The tubes were placed in a water bath at 50° C. for 10 min. and cooled at room temperature. 100 μl of a solution containing 2 g potassium sodium tartrate and 1 g CuSO4 x 5 H2 O in 90 ml water and 10 ml 1N NaOH were added. The samples were left at room temperature for at least 10 min., then 3 ml of Folin-Ciocalteu reagent (1 ml of reagent diluted with 15 ml water) was added rapidly during mixing. The tubes were again heated at 50° C. for 10 min. and cooled to room temperature. Absorbencies were then read in 1 cm cuvets at 650 nm. The final protein concentration used for our studies was between 100 and 250 μg/ml.
Incubation in both binding assays was terminated using a Millipore filter system. The samples, all in triplicate, were rinsed three times with 2.5 ml ice cold assay buffer over glass fibre filters obtained from Schleicher & Schuell under a constant vacuum. Following separation and rinse the filters were placed into scintillation liquid (5 ml; Ultima Gold) and radioactivity retained on the filters was determined by using conventional liquid scintillation counter (Hewlett Packard, Liquid Scintillation Analyser). `Total binding` was the absolute amount of radioligand bound in the absence of any additives whereas `non-specific` binding was determined in the presence of a high concentration of competitor.
[^3 H]5,7-DCKA binding assay
Experiments were performed according to the methods modified from previous groups (Canton et al., 1991; Yoneda et al., 1993). Membranes were suspended and incubated in 10 mM Tris-HCl, pH 7.4. Incubation time was 45 min at 4° C. Non-specific binding of [^3 H]5,7-DCKA was defined by the addition of unlabeled glycine at 0.1 mM. The stop-solution contained 10 mM Tris-HCl and 10 mM magnesium sulphate, pH 7.4. Filtration was performed as rapidly as possible. Displacement experiments were performed with a fixed [^3 H]5,7-DCKA concentration of 10 nM. Test compounds were diluted in water or DMSO and added in at least 5 different concentrations.

Data set [7] deals with T1, NMDA receptor. Put plainly: Pentylenetetrazol (PTZ)-induced convulsions. The data set is classed as in vivo. Particulars: ip, 0.25 h, i.p., PTZ 90 mg/kg i.p., read-out: PTZ ID50. The protocol:
as §1, §2
Pentylenetetrazol was injected at a dose of 90 mg/kg (i.p). The presence of general tonic convulsions was then scored for 30 min as this parameter is more sensitive to NMDA receptor antagonists than clonic convulsions. The pharmacological end-point was taken as the presence of tonus in the hind limbs with stretching.

Data set [8] can be described thus: In vivo systemic and / or CNS availability.
[9] abbreviates: peak currents, read-out: Peak NMDA IC50.
The mark [10] stands for this setting: plateau (steady-state) currents, read-out: Plateau NMDA IC50.

Counter-ions that a name gives are not always drawn. Like-named read-outs stand apart in the source and are kept apart here.

For orientation: IC50 means the concentration that inhibits the measured activity by half. Regarding `O=c1[nH]nc(O)c2c1cc1cc(Br)ccc1[n+]2[O-]` [Mrz 2/570, 8-bromo-4-hydroxy-1-oxo-1,2-dihydropyridazino[4,5-b]-quinoline 5-oxide choline salt], in data set [1] (listed as 570, 15 min), the “MES ID50” value worked out at 12.8 mg/kg. For the same compound, the IC50 in data set [2] (setting [9]) was determined as 0.6 µM; in data set [2] (setting [10]) it was 0.1 µM. Further, the “Microelectrophoretic AMPA ID50” value in data set [3] is given as above 16.0 mg/kg. The “half life of anticonvulsive action” value was around 1.33 h in data set [4] (absence of probenecid) and around 3.5 h in data set [4] (presence of probenecid 200 mg/kg, 30 min before). Also, the ED50 in data set [5] turned out to be 4.5 mg/kg.

Regarding `O=c1[nH]nc(O)c2c1cc1ccccc1[n+]2[O-]` [Mrz 2/499, 4-hydroxy-1-oxo-1,2-dihydro-pyridazino[4,5-b]-quinoline 5-oxide], the IC50 in data set [6] is 16 µM; in data set [2] (setting [9]), 51.2 µM; in data set [2] (setting [10]) it was 13.8 µM. In addition, the “activity in the MES test” value in data set [1] is on record as “effective”. For the same compound, in data set [1] (listed as 499, 15 min), the “MES ID50” value was 87.0 mg/kg. In addition, the ED50 in data set [7] was found to be 18.6 mg/kg. The “in vivo systemic and / or CNS availability versus associated class I compounds” value in data set [8] was “much better”.

Values taken from patent US5776935A, “Pyrido-phtalazin diones and their use against neurological disorders associated with excitotoxicity and malfunctioning of glutamatergic neurotransmission” (Merz & Co. GmbH & Co., priority 1996, dated 1998).
